Results reported in patent US8426369B2, “Prevention and treatment of colon cancer” (Rutgers, The State University of New Jersey, priority 2006, dated 2013).

Tests used:
[1] = tested on: HT-29 cells; assay: [3H]Thymidine incorporation cell proliferation assay in HT-29 cells; assay type: cell-based, human; conditions: 30 μM, three days
Method: The stilbenes illustrated in FIG. 4 were also used to investigate their ability to inhibit cell proliferation in HT-29 cell line. In this experiment, HT-29 cells (20,000 cells/well in 24-well plate) were treated with the respective stilbenes (each used either at 30 μM or 3 μM) in 10% FBS/DMEM for three days.
(§1) Human colon carcinoma cell lines HT-29 was obtained from the American Type Culture Collection (Manassas, Va.). The cells were maintained in Dulbecco's modification of Eagle's medium (DMEM) supplemented with 10% FBS and 1% penicillin/streptomycin at 37° C. and 5% CO2. The cytokine mixture, consisting of 10 ng/ml of TNF-α, IFN-γ and LPS, was used to induce iNOS and COX-2, unless otherwise mentioned. The cells were treated with the test compound either alone or in combination with cytokines for different time intervals and harvested for protein or RNA.
HT-29 cells were plated at a density of 20,000 cells/well in a 24 well plate and treated with varying concentrations of pterostilbene for a period of 1, 2 or 3 days at 37° C. Before harvest, the cells were incubated with 1 μCi [^3H]thymidine for 4 h at 37° C. and were washed with phosphate buffered saline. The cells were precipitated with cold 10% trichloroacetic acid for 10 min and solubilized with 0.5 ml solubilization buffer (0.2 M NaOH, 40 μg/ml salmon sperm DNA) for 2 h at room temperature. The lysate was transferred to 5 ml Ecolume and the [3H]thymidine incorporated into the DNA of HT-29 cells was determined using a scintillation spectrometer (Beckman Coulter, Fullerton, Calif.).

[2] = tested on: iNOS; assay: Cytokine-induced iNOS protein expression in HT-29 cells (Western blot); assay type: cell-based, human; conditions: stilbene analogs each at 10 μM, 15 hours, HT-29, Western blot
Method: HT-29 human colon adenocarcinoma cells were grown in 10% FBC/DMEM. Cells (about 600,000 cells/well) were plated in 6-well plate and treated with stilbene analogs shown in FIG. 4 (each at 10 μM) for 15 hours together with cytokine mixture comprising TNF-a, IFN0g, and LPS (each at 10 ng/ml). Cell lysates were prepared and subjected to Western Blot analysis.
as §1
The cell culture conditions and the reagents used in this example were described in Example 32. Whole cell extracts were collected after the various treatments and analyzed by western blotting. The protein samples were separated on 4-15% SDS-PAGE gels (Biorad, Hercules, Calif.) followed by transfer to a polyvinylidene fluoride membrane. The membranes were blocked with 5% milk in Tris buffer for 1 h and then incubated with the appropriate primary antibody solutions overnight at 4° C. The membranes were washed with Tris buffer, and incubated with horseradish peroxidase conjugated secondary antibody solutions for 1 h at room temperature.
The protein bands were visualized using a chemiluminescence based kit from Amersham Biosciences (Buckinghamshire, UK). The primary antibodies against iNOS, COX-2, IκBα, cyclin D1, c-myc (Santa Cruz Bio-technology, Santa Cruz, Calif.), phospho-STAT3, phospho-Erk1/2, phospho-JNK1/2, phospho-p38, phospho-Akt, phospho-ATF2, phospho-Elk1, PARP (Cell Signaling Technology Inc., Beverly, Mass.) and actin (Sigma, St. Louis, Mo.) and secondary antibodies (Santa Cruz Biotechnology, Santa Cruz, Calif.) were used for probing the abundance of the target protein in the samples.

[3] = tested on: AOM-induced rat colon carcinogenesis; conditions: 100 ppm; cited from earlier work
[4] = tested on: AOM-induced colonic ACF; conditions: F344 rats; L-N6-(1-iminoethyl)lysine tetrazoleamide at 100 ppm; cited from earlier work
[5] = tested on: colorectal aberrant crypt foci (ACF); conditions: rats; cited from earlier work

Compound | proliferation of HT-29 cells [1] | AOM-induced colonic ACF [4] | also measured
COc1ccc(/C=C/c2cc(OC)cc(OC)c2)cc1 [ARS-8, (E)-1,3-dimethoxy-5-(4-methoxystyryl)benzene] | inhibited proliferation |  | 
COc1ccc(/C=C\c2cc(OC)cc(OC)c2)cc1 [ARS-9, (Z)-1,3-dimethoxy-5-(4-methoxystyryl)benzene] | inhibited proliferation |  | induction of iNOS protein expression by cytokine mixture [2]: inhibited
C[C@H]1CC(=N)N[C@@H]2[C@H](Cl)[C@@H]21.Cl [ONO-1714, [1S,5S,6R,7R]-7-chloro-3-imino-5-methyl-2 azabicyclo[4.1.0]heptane hydrochloride] |  |  | AOM-induced rat colon carcinogenesis [3]: inhibitory effect
N=C(N)SCCc1ccc(CCSC(=N)N)cc1 [PBIT, S,S′-1,4-phenylene-bis(1,2-ethanediyl)bis-isothiourea] |  | inhibitory effects | 
Oc1ccc(C=Cc2cc(O)cc(O)c2)cc1 [Resveratrol] |  |  | growth of colorectal aberrant crypt foci (ACF) [5]: reduce the growth
L-N^6-(1-iminoethyl)lysine tetrazoleamide |  | significantly suppress | 
